Results taken from patent US20100004165A1, “Novel Protein Transduction Domains and Uses Therefor” (The Arizona Board of Regents, a body corporate acting on …, priority 2005, published 2010).
Square brackets hold non-standard residues; d marks the D form. Ends that are not written are not given here. pS = N[C@@H](COP(=O)(O)O)C(=O)O

Tests used:
[1] = system: porcine ear skin; assay: Fluorescence microscopy of skin sections after peptide application; conditions: 4 hours post-application
From the text: The skin sections (8 μm) were mounted on glass slides. The slides were visualized without any additional staining or treatment through a 20× objective using a Zeiss microscope (Carl Zeiss, Thornwood, N.Y., USA) equipped with a filter for FITC and AxioVision software.

[2] = system: connective tissue growth factor (CTGF); assay: TGFβ1-induced CTGF expression in human keloid fibroblasts (immunoblot); assay type: cell-based; conditions: 24 hours; for reduction of CTGF expression compared to TGFβ1 treatment: 50 μM peptide
Experimental: As a key marker of the anti-fibrotic activity of HSP20 peptides, we have previously examined expression levels of connective tissue growth factor (CTGF) in human keloid fibroblasts after stimulation with transforming growth factor beta 1 (TGFβ1). Cells were grown in 10 cm^2 dishes to 70% confluence in DMEM with 10% fetal bovine serum (FBS) and additional penicillin and streptomycin (1%), at 37° C. and 10% CO2. Cells were serum starved in DMEM containing 0.5% FBS for 48 hours before the experiment. Cells were either untreated (control) or treated with TGFβ1 (2.5 ng/mL) in the presence or absence of WL-P20 (SEQ ID NO: 10) phosphopeptide ([…]p[…], where pS is phosphoserine) (10 or 50 μM) for 24 hours. At the end of the experiment, cells were rinsed with PBS, and homogenized using urea-dithiothreitol-chaps (UDC) buffer. Lysates were mixed, centrifuged (6000×g) for 20 minutes, and the supernatant was used for determination of protein expression. Samples (20 μg of protein) were loaded on 15% SDS-PAGE gels, and the proteins were electrophoretically transferred to Immobilon membranes. Immunoblotting with CTGF antibodies was used in conjunction with near infrared detection antibodies to determine CTGF expression (Odyssey Li-Cor, Lincoln, Nebr.). Loading differences were corrected for by normalizing to GAPDH expression
(§1) Human keloid fibroblasts were serum-starved in DMEM medium containing 0.5% FBS for 48 hours, and treated with 2.5 ng/mL of TGF-betal for 24 hours and concomitantly treated with the WL-20 (SEQ ID NO: 10) (10 or 50 μM) for 24 hours. The Western blot bands were quantified by densitometry, and CTGF and collagen expression were related to GAPDH expression to correct for loading differences. The expression of CTGF and collagen in control cells was set to 1 for comparison of different blots.

[3] = system: porcine ear skin; assay: In vitro skin penetration and transdermal delivery, porcine ear skin in Franz diffusion cell, spectrofluorimetry (Example 3); conditions: up to 8 hours post-application
Experimental: Fluorescence microscopy was used to visualize the peptides in different skin layers.
Formulations: Except in the experiments involving chemical penetration enhancers, FITC-labeled peptides were dissolved in phosphate-buffered saline (PBS, 10 mM, pH 7.2); the peptide concentration was 100 μM. In the experiment involving penetration enhancers, PBS could not be used as a solvent because of the lipophilic nature of monoolein and oleic acid. Propylene glycol was used as a solvent, since it solubilizes both lipids and peptides. […] The formulations were prepared by mixing monoolein or oleic acid with propylene glycol and adding the peptides to the system immediately thereafter.
Porcine ear skin was used as model skin for in vitro skin penetration studies because of its similarity with human skin, especially regarding histological and biochemical properties and permeability to drugs (33). Freshly excised porcine ears were obtained from a local abattoir. The skin from the outer surface of the ear was carefully dissected; making sure that the subcutaneous fat was maximally removed (34). Maximum care was taken to maintain the integrity of the skin, which was assured by histology. The cleaned porcine ear skin was immediately mounted in a Franz diffusion cell (diffusion area of 1 cm^2; Laboratory Glass Apparatus, Inc, Berkeley, Calif., USA), with the stratum corneum facing the donor compartment (where the formulation was applied) and the dermis facing the receptor compartment, which was filled with PBS (100 mM, pH 7.2, 3 mL). The receptor phase was maintained at 37° C. and under constant stirring. To achieve higher reproducibility, the skin samples were equilibrated to the diffusion cell conditions for 30 minutes before application of any formulation.
PBS solutions or propylene glycol formulations of the peptides (70 μL each) were applied to the skin surface (donor compartment). […] The concentrations of FITC-P20 (SEQ ID NO: 9), FITC-YARA-P20 (SEQ ID NO: 42), and FITC-TAT-P20 (SEQ ID NO: 43) in the skin and receptor phase were determined at 0.5, 1, 2, 4, and 8 hour post-application.
At the end of the experiment, skin surfaces were thoroughly washed with distilled water to remove excess formulation and carefully wiped with a tissue paper. To separate the stratum corneum (SC) from the remaining epidermis (E) and dermis (D), the skin was subjected to tape stripping. The skin was stripped with 15 pieces of adhesive tape (3M, St. Paul, Minn., USA), and the tapes containing the SC were immersed in 3 mL of a water:methanol (1:1 v/v) solution, vortexed for 2 min, and bath sonicated for 30 minutes. The remaining [E+D] was cut in small pieces, vortexed for 2 minutes in 2 mL of a water:methanol (1:1 v/v) solution, and homogenized using a tissue grinder for 1 minute and bath sonication for 30 minutes. The resulting mixture was centrifuged for 1 minute. The peptide present in the receptor phase was concentrated (10×) as follows. Samples (2 mL) of the receptor phase were lyophilized for 24 hours, and the residue was dissolved in 200 μL of a hidroalcoholic (20% of ethanol) solution.
All solutions were subjected to fluorimetry analysis using a Gemini SpectraMax™ platereader (Molecular Devices, Sunnyvale, Calif., USA) with excitation at 495 nm and emission at 518 nm. […] To evaluate the recovery of the peptides from the skin in the extraction procedure, tissues sections (1 cm^2) were spiked with 20 μL of 0.2 and 0.5 mM solutions of the peptides. The skin sections were homogenized using a tissue grinder, vortex-mixer, and bath sonicator, as described above. […] We accounted for such a recovery percentage in the quantification of peptides.

[4] = system: Rat aorta; assay: Vasorelaxation of rat aorta rings pre-contracted with KCl (muscle bath)
Experimental: Rat aorta was isolated and dissected free from connective and fat tissue. Transverse rings, 3.0 mm in width, were cut and tied to silk suture. The tissue was suspended in a muscle bath containing a bicarbonate buffer (120 mM NaCl, 4.7 mM KCl, 1.0 mM MgSO4, 1.0 mM NaH2PO4, 10 mM glucose, 1.5 mM CaCl2, and 25 mM […], pH 7.4) and equilibrated with 95% O2/5% CO2 at 37° C. The rings were fixed at one end to a stainless steel wire and attached to a force transducer in muscle perfusion system (Radnotti). The rings were then progressively stretched, and the isometric force generated in response to 110 mM KCl (with equimolar replacement of NaCl in bicarbonate buffer) was determined until the consistent maximal force was produced. Agonists and peptide was added directly to the baths. Tissue that was pre-contracted with 110 mM potassium chloride (KCl) followed by 1.0 mM WL-P20 ([…]p[…], pS is phosphoserine) (SEQ ID NO: 10), where pS is phosphoserine) relaxed compared to untreated control (13% relaxation at 10 minutes, 50% relaxation at 30 minutes, and maximum 88% relaxation at ˜60 minutes, FIG. 4). Percent relaxation was calculated relative to maximum force generated with KCl. […] Such a difference may result from different mechanisms of penetration and/or intracellular localization.

[5] = system: collagen; assay: TGFβ1-induced collagen expression in human keloid fibroblasts (Western blot); assay type: cell-based; conditions: 10 or 50 μM, 24 hours
Experimental: as §1

[6] = system: primary rat astrocyte cells; assay: Transduction across cell membranes in primary rat astrocyte cells; assay type: cell-based
Experimental: The in vitro model used to assess transduction across cell membranes was primary rat astrocyte cells. Cells were isolated as described (Innocenti et. al., J. Neurosci. 20:1800-1808, 2000), seeded at ˜3×10^4 cells/cm^2, and cultured in full serum (10% FBS in α-MEM) overnight. Some cells were serum starved by culturing in 0.5% FBS for 1-24 hours prior to treatment with transduction peptides.

[7] = system: porcine ear skin; assay: Ex vivo skin transduction, porcine ear skin in modified Franz diffusion cell (Example 2); assay type: in vitro ADME; conditions: 100 uM, conjugated or alone (FIG. 1, Panel C)
Experimental: The ex vivo model selected for skin transduction studies was freshly excised porcine ears. […] The system was maintained at 37° C. and under constant stirring. […] The amount of peptides that permeated across the skin was determined in the receptor phase; 1.5 mL of the receptor phase was withdrawn, lyophilized and the residue was suspended in 150 μL of water. […] Standard curves of the peptides were used as reference.

[8] = system: vagina; conditions: 1 mM in K-Y Jelly, 4 hours
Experimental: (§2) Peptide was applied to both the vagina and anal canal using an applicator and allowed to penetrate for 4 hours. Tissue was excised and embedded in frozen tissue embedding medium (HistoPrep) for cryosectioning. Sections were mounted in anti-fade reagent and examined using fluorescence microscopy (Zeiss Axiovert).

[9] = system: anal canal; conditions: 1 mM in K-Y Jelly, 4 hours
Experimental: as §2

| Substance | localisation of fluorescence in skin layers [1] | reduction of CTGF expression compared to TGFβ1 treatment [2] | permeation across the skin, in words [3] | time of maximum relaxation [4] | maximum relaxation relative to maximum force generated with KCl ([4]; 1.0 mM peptide, 110 mM KCl pre-contraction) | relaxation relative to maximum force generated with KCl ([4]; 1.0 mM peptide, 110 mM KCl pre-contraction, at 10 minutes) | relaxation relative to maximum force generated with KCl ([4]; 1.0 mM peptide, 110 mM KCl pre-contraction, at 30 minutes) | effect on TGFβ1-induced collagen expression [5] | effect on TGFβ1-induced CTGF expression ([2]; 10 or 50 μM) | time of maximal transduction [6] | transduction ([6]; 1 μM) | transduction ([6]; 25 μM) | transduction ([6]; 50 μM) | skin penetration [7] | mucosal penetration in the vagina [8] | fluorescence in the anal canal [9] |
| --- | --- | --- | --- | --- | --- | --- | --- | --- | --- | --- | --- | --- | --- | --- | --- | --- |
| WLRRApSAPLPGLK (WLRRA[pS]APLPGLK; also: FITC label) [P20] | fluorescence was found only in the SC | 30% | did not permeate across the skin at all | – | – | – | – | – | – | – | – | – | – | – | – | – |
| WLRRIKAWLRRApSAPLPGLK (WLRRIKAWLRRA[pS]APLPGLK) [WL-P20] | – | 46% | – | ~60 min | 88% | 13% | 50% | inhibits | inhibits | approximately 20 minutes | no transduction | slightly reduced transduction | efficient transduction | significantly enhanced | Mucosal penetration in the vagina was achieved | only minimal fluorescence |
